{"source": "ChEMBL document CHEMBL1124582", "about": "“Design of potential anti-HIV agents. 1. Mannosidase inhibitors” (J Med Chem, 1989)", "assay": "Inhibitory activity against Mannosidase in rat liver"}
{"smiles": "O[C@@H]1[C@H]2[C@@H](O)CCCN2C[C@H]1O", "values": [{"measurement": "IC50", "result": "~50", "unit": "µM"}]}
{"smiles": "O[C@H]1[C@H]2[C@@H](O)CCCN2C[C@H]1O", "values": [{"measurement": "IC50", "result": "~50", "unit": "µM"}]}
{"smiles": "O[C@H]1[C@@H]2[C@H](O)CCCN2C[C@H]1O", "values": [{"measurement": "IC50", "result": "~10", "unit": "µM"}]}
{"smiles": "OC1CN2CCCCC2C1O", "note": "(centres undefined)", "values": [{"measurement": "IC50", "result": 7500, "unit": "µM"}]}
